Columns and labels:
E. coli K1 pilA+::tetR = experiment: microbe, parasite or virus in culture; type: cell-based; details: for IC100: Escherichia coli, 0.05 h, read-out: Concentration causing total inhibition of yeast agglutination; for Relative Inhibitory Activity: concentration of methyl α-D-mannopyranoside divided by the concentration of the compound
Experimental: Compounds 4, 6-9 and 12 were assayed for bacterial receptor binding using agglutination studies with yeast cells and their inhibitory activity was compared to that of methyl α-D-mannopyranoside 13 (Firon et al. (1983) Carbohydrate Research 120:235; Eshdat et al. (1978) Biochem. Biophys. Res. Commun. 85:1551; and Firon et al. (1982) Biochem. Biophys. Res. Commun. 105:1426. The bacterial strain used in our study was a systemically invasive E. coli K1 pilA+::tetR strain that is responsible for sepsis and meningitis in human infants (Bloch et al. (1990) Infection and Immunity 58:275). A summary of the results is given in Table 2.
^a E. coli K1 pilA+::tetR were grown for 24 h at 37° C. on
solid LB media supplemented with tetracycline and were suspended with a
cotton swab in 4 mL of Dulbecco's PBS to a final dilution of 2 ×
10^8 cells/mL. Yeast (Saccharomyces cerevisiae, wild type) were grown
for 36 h on solid YPD media at 30° C. and were suspended with a
cotton swab in 4 mL of Dulbecco's PBS to a final dilution of 1 ×
10^8 cells mL. Protein concentrations were determined by BCA Protein
Assay (Pierce). Agglutination assays were performed on a 20 well ceramic
ring plate. Typically, 90 μl of a solution of the test compound was
combined with 30 μl of the bacterial suspension. After 30 seconds, 30
μl of the yeast suspension was added to give a final volume of 150
μl and the wells were allowed to develop for 3 min. with agitation. A
μl aliquot was removed from each well and spread onto a standard
microscope slide. The slides were quickly heat fixed and mounted with 10
μl of glycerol. The slides were examined under phase contrast at
500× magnification using a Zeiss Axioskip microscope. Agglutination
was observed as clusters of cells. total inhibition of agglutination was
determined by the observation of single cells only.
^b Concentration causing total inhibition of yeast agglutination.

E. coli cell = experiment: Localization of protein A-gold particles on the E. coli cell surface by transmission electron microscopy; type: cell-based; details: avidin, anti-avidin antibodies, protein A labelled with gold particles (15 nm); no localization without hybrid molecule
From the text: The particles were bound through a hybrid molecule consisting of a mannose binding moiety attached to biotin through a carbon linkage. Avidin, anti-avidin antibodies, and protein A labelled with the gold particles were exposed to cell and completed a bridge binding the gold particles. The location of a gold particle is shown by the arrow.
FIG. 6 is an electron micrograph showing a strain of E. coli, similar to that illustrated in FIG. 5, in the absence of the hybrid molecule. The cell was exposed to avidin, anti-avidin antibodies, and protein A labelled with gold particles. No localization of the gold particles was achieved without the hybrid molecules.
E coli cells bound with avidin, as described above, were sequentially exposed to anti-avidin antibodies and gold (15 nm) colloidal particles bound to protein A. It was expected that the gold would localize on the E. coli cell surface through an antibody-protein A bridge. Localization on bacterial pili was confirmed by transmission electron microscopy (TEM). The results are shown in FIG. 5 (typical gold particle shown by arrow) and FIG. 6 (control where E. coli cells incubated with protein A-gold without anti-avidin antibody).

complement (Clq) = experiment: Binding of complement (Clq) to anti-avidin (IgG2) bound to E. coli through the hybrid molecule
From the text: Clq binding is the first step in the complement cascase which is part of the humoral response.

| Compound | IC100 (E. coli K1 pilA+::tetR) [µM] | Relative Inhibitory Activity (E. coli K1 pilA+::tetR) | further results |
| --- | --- | --- | --- |
| CCC[C@H]1O[C@H](CO)[C@@H](O)[C@H](O)[C@@H]1O [Compound 4] | 7000 | 9.6 |  |
| O=C(O)CC[C@H]1O[C@H](CO)[C@@H](O)[C@H](O)[C@@H]1O [Compound 6] | 47000 | 1.4 |  |
| NCCC[C@H]1O[C@H](CO)[C@@H](O)[C@H](O)[C@@H]1O [Compound 7] | 40000 | 1.7 |  |
| OCCC[C@H]1O[C@H](CO)[C@@H](O)[C@H](O)[C@@H]1O [Compound 8] | 13000 | 5.2 |  |
| O=C(CCCC[C@@H]1SC[C@@H]2NC(=O)N[C@@H]21)NCCC[C@H]1O[C@H](CO)[C@@H](O)[C@H](O)[C@@H]1O [Compound 9] | 7000 | 9.6 | Localization of gold particles on the E. coli surface (TEM) (E. coli cell): localization of gold particles on the surface of an E. coli cell; Clq binding to anti-avidin (IgG2) bound to E. coli (complement (Clq)): has also been shown |
| CCC[C@@H]1O[C@H](CO)[C@@H](O)[C@H](O)[C@@H]1O [Compound 12] |  |  | Inhibitory activity on agglutination (E. coli K1 pilA+::tetR; at a concentration of 100 mM): no inhibitory activity |
| CO[C@H]1O[C@H](CO)[C@@H](O)[C@H](O)[C@@H]1O [Compound 13, methyl α-D-mannopyranoside, reference compound] | 67000 | 1 |  |
| O=[N+]([O-])c1ccc(O[C@H]2O[C@H](CO)[C@@H](O)[C@H](O)[C@@H]2O)cc1 [Compound 14, reference compound] | 1600 | 42 |  |
| avidin: avidin alone, a soluble glycosylated protein used in place of streptavidin [reference compound] |  |  | Concentration causing total inhibition of yeast agglutination (E. coli K1 pilA+::tetR; E. coli K1 pilA+::tetR with Saccharomyces cerevisiae, 3 min, single cells only under phase contrast): 0.4 mM |

— patent publication US5212075A, “Compositions and methods for introducing effectors to pathogens and cells” (priority 1991, dated 1993)
